Test results from article PMC12648460, “Substitution of CH3 by CH2F in 2‐Methylerythritol Cyclodiphosphate Triggers Potent Inhibition of IspG with Concomitant Fluoride Ion Expulsion” (Chemistry (Weinheim an Der Bergstrasse, Germany), 2025).

Key:
Assay type in all cases: biochemical
IspG (GcpE) [1] = target: T1, IspG (GcpE) (Escherichia coli, UniProt P62620); assay: anaerobic NADPH consumption assay of purified IspG with […] MEcPP
T1 construct: active dimeric form

IspG (GcpE) [2] = target: T1, IspG (GcpE); assay: anaerobic NADPH consumption assay ([…] nm), […] min preincubation with reduction system; […]-NMR of fluoride release
IspG (GcpE) [3] = target: T1, IspG (GcpE); assay: anaerobic NADPH consumption assay, preincubation with reduction system

T1 sequence (P61949 2-176): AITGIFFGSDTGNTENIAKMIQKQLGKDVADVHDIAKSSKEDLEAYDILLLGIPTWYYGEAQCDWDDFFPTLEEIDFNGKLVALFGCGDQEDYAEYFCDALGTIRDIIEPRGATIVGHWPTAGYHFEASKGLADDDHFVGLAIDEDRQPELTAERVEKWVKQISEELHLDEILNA
T1 sequence (P28861 2-248, further chain): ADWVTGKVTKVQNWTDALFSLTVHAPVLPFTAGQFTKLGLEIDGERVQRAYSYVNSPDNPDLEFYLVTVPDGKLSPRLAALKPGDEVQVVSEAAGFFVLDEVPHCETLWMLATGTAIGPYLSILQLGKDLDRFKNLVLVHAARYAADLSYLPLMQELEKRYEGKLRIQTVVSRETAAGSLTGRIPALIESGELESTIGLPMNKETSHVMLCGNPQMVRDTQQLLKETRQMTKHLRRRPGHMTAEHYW
T1 sequence (P62620 whole entry): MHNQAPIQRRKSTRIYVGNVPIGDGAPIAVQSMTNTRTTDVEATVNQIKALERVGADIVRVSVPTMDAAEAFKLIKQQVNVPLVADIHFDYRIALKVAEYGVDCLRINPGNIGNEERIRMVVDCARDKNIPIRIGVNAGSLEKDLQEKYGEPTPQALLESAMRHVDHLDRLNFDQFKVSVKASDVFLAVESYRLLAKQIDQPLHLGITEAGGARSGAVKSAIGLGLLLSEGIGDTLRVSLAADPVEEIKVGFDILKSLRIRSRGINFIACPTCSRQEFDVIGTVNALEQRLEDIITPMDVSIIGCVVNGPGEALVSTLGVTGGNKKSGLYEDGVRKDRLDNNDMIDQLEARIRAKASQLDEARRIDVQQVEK

Question: How did the “anaerobic NADPH consumption assay of purified IspG with 250 μM MEcPP” value (IspG (GcpE) [1]) turn out when `C[C@@]1(CO)OP(=O)(O)OP(=O)(O)OC[C@H]1O` [compound 1, 2-C-methyl-D-erythritol 2,4-cyclodiphosphate] was run?
Answer: The value was ~ 200 nmol min−1 mg−1.

Question: For `O=P1(O)OC[C@@H](O)[C@@](CO)(CF)OP(=O)(O)O1` [compound 8, monofluoromethyl-D-erythritol cyclodiphosphate], which IC50 (IspG (GcpE) [2]) is on record?
Answer: The IC50 was 10.4 ± 1 µM.

Question: With `C=C[C@@]1(CO)OP(=O)(O)OP(=O)(O)OC[C@H]1O` [VEcPP, 2-C-vinyl-D-erythritol cyclodiphosphate] as the molecule, how does the IC50 (IspG (GcpE) [3]) read?
Answer: The IC50 was 19.5 ± 1.3 µM.
